Results taken from patent US11452758B2, “Antimicrobial peptide derived from LL37 peptide and uses thereof” (INDUSTRY-ACADEMIC COOPERATION FOUNDATION, CHOSUN UNIVERSITY, priority 2018, dated 2022).
Values after ≈ are worked out from the molar mass of the structure shown.

Tests used:
A. baumannii #11 = assay type: cell-based, Acinetobacter baumannii; conditions: #11
Description: (§1) To compare the antimicrobial activity among the peptides produced by the method of Example 1, the inventors of the present invention measured the minimal growth inhibitory concentration (MIC), which is minimum concentration of the peptide not allowing any […] of bacterial cells.
(§2) Specifically, the bacterial strains described in the following Table 2 were purchased and cultured to a mid-log phase in MHB (Mueller Hinton Broth) medium. Then, after dilution to bacterial cell concentration of 2×10^5 cells/50 μl, the cells were inoculated to a microtiter plate (NUNC, USA). Thereafter, LL37-1, LL37-2, LL37-3 or LL37-4 peptide which has been synthesized in Example 1 above was subjected to serial dilution, ½ times for each, in a 96-well plate. After adding the peptides in an amount of 50 μl to the cell plate, the cells were cultured for 18 hours at 37° C. By using a microtiter plate reader (Merck Elisa reader, Germany), the absorbance was measured at a wavelength of 600 nm to determine the MIC value of each bacterial strain. As a control group, LL37 as a mother peptide was used and subjected to the same process as above to determine the MIC value of each strain.

A. baumannii #12 = assay type: cell-based, Acinetobacter baumannii; conditions: #12
Description: as §1, §2

A. baumannii #9 = assay type: cell-based, Acinetobacter baumannii; conditions: #9
Description: as §1, §2

A. baumannii #10 = assay type: cell-based, Acinetobacter baumannii; conditions: #10
Description: as §1, §2

A. baumannii #13 = assay type: cell-based, Acinetobacter baumannii; conditions: #13
Description: as §1, §2

A. baumannii #2 = assay type: cell-based, Acinetobacter baumannii; conditions: #2
Description: as §1, §2

A. baumannii #19 = assay type: cell-based, Acinetobacter baumannii; conditions: #19
Description: as §1, §2

A. baumannii #8 = assay type: cell-based, Acinetobacter baumannii; conditions: #8
Description: as §1, §2

A. baumannii #5 = assay type: cell-based, Acinetobacter baumannii; conditions: #5
Description: as §1, §2

A. baumannii #3 = assay type: cell-based, Acinetobacter baumannii; conditions: #3
Description: as §1, §2

A. baumannii KCTC 2508 = assay type: cell-based, Acinetobacter baumannii
Description: as §1, §2

A. baumannii #4 = assay type: cell-based, Acinetobacter baumannii; conditions: #4
Description: as §1, §2

[1] = test system: Acinetobacter baumannii KCTC 2508; assay: Low vacuum scanning electron microscopy (membrane-disrupting property); assay type: cell-based; conditions: peptide at MIC concentration, 30 minutes at 37° C.
Protocol: To specifically determine the degree of antimicrobial activity of the synthesized peptides of the present invention, the influence of mother peptide LL37 and homologous peptides LL37-1, LL37-2, LL37-3 and LL37-4 on bacteria membrane, i.e., membrane-disrupting property, was determined by low vacuum scanning electron microscopy.
Specifically, Acinetobacter baumannii KCTC 2508 cells were cultured to a mid-log phase in MHB medium, and then diluted to a cell concentration of 2×10^7 cells/ml in physiological saline containing 10% MHB medium. […] After that, by using 2.5% glutaraldehyde, the bacterial cells were fixed for 30 minutes at room temperature and then for 12 hours at 4° C. After carrying out washing with buffer, the cells were fixed again with […] and dehydrated in stepwise manner by using ethanol. After the dehydration, platinum coating was carried out and the cells were observed by low vacuum scanning electron microscopy.

S. aureus ATCC 25923 = assay type: cell-based, Staphylococcus aureus; conditions: ATCC 25923, 18 h
Description: as §1, §2

[2] = Cytotoxicity in normal cell line (MTT); assay type: cell-based, human; conditions: human
Protocol: To determine the cytotoxicity of the peptides produced by the method of Example 1 in normal cell line, cytotoxicity was measured by using normal human keratinocyte cell line (HaCaT) and normal human fibroblast cell line (Hs27).
Specifically, normal human keratinocyte (HaCaT) cells and normal human fibroblast (Hs27) cells, which have been cultured in DMEM medium containing 10% FBS (fetal bovine serum), were aliquoted in a microtiter plate to have 1×10^4 cells per well. After culturing them for 24 hours, the cells were subjected to a treatment with LL37, LL37-1, LL37-2, LL37-3 or LL37-4 peptide, each at concentration of 0.5, 1, 2, 4, 8, 16 or 32 μM/well, followed by reaction for 24 hours in a 5% CO2 incubator. After culture, a reaction solution containing 5 mg/ml MTT (Thiazolyl Blue Tetrazolium Bromide) dissolved in phosphate buffered saline (PBS) was added in an amount of 10 μl to each well and the reaction was allowed to occur for 1 hour. After that, the supernatant was discarded, and, by dissolving MTT crystals that are formed by adding 200 μl DMSO (dimethyl sulfoxide), the absorbance at 570 nm was measured to determine the cell survival ability.

P. aeruginosa ATCC 27853 = assay type: cell-based, Pseudomonas aeruginosa; conditions: ATCC 27853, 18 h
Description: as §1, §2

## CC[C@H](C)[C@H](NC(=O)[C@H](CCCCN)NC(=O)[C@H](CCC(=O)O)NC(=O)[C@H](CCCCN)NC(=O)[C@H](CO)NC(=O)[C@H](CCCCN)NC(=O)[C@H](CCCNC(=N)N)NC(=O)[C@H](Cc1ccccc1)NC(=O)[C@H](Cc1ccccc1)NC(=O)[C@H](CC(=O)O)NC(=O)CNC(=O)[C@H](CC(C)C)NC(=O)[C@@H](N)CC(C)C)C(=O)NCC(=O)N[C@@H](CCCCN)C(=O)N[C@@H](CCC(=O)O)C(=O)N[C@@H](Cc1ccccc1)C(=O)N[C@@H](CCCCN)C(=O)N[C@@H](CCCNC(=N)N)C(=O)N[C@H](C(=O)N[C@H](C(=O)N[C@@H](CCC(N)=O)C(=O)N[C@@H](CCCNC(=N)N)C(=O)N[C@H](C(=O)N[C@@H](CCCCN)C(=O)N[C@@H](CC(=O)O)C(=O)N[C@@H](Cc1ccccc1)C(=O)N[C@@H](CC(C)C)C(=O)N[C@@H](CCCNC(=N)N)C(=O)N[C@@H](CC(N)=O)C(=O)N[C@@H](CC(C)C)C(=O)N[C@H](C(=O)N1CCC[C@H]1C(=O)N[C@@H](CCCNC(=N)N)C(=O)N[C@H](C(=O)N[C@@H](CCC(=O)O)C(=O)N[C@@H](CO)C(N)=O)[C@@H](C)O)C(C)C)[C@@H](C)CC)C(C)C)[C@@H](C)CC [LL37]
A. baumannii #11
  Minimal inhibitory concentration: 2 µM (≈ 8.98 µg/mL)
A. baumannii #12
  Minimal inhibitory concentration: 2 µM (≈ 8.98 µg/mL)
A. baumannii #9
  Minimal inhibitory concentration: 2 µM (≈ 8.98 µg/mL)
A. baumannii #10
  Minimal inhibitory concentration: 2 µM (≈ 8.98 µg/mL)
A. baumannii #13
  Minimal inhibitory concentration: 2 µM (≈ 8.98 µg/mL)
A. baumannii #2
  Minimal inhibitory concentration: 2 µM (≈ 8.98 µg/mL)
A. baumannii #19
  Minimal inhibitory concentration: 2 µM (≈ 8.98 µg/mL)
A. baumannii #8
  Minimal inhibitory concentration: 2 µM (≈ 8.98 µg/mL)
A. baumannii #5
  Minimal inhibitory concentration: 2 µM (≈ 8.98 µg/mL)
A. baumannii #3
  Minimal inhibitory concentration: 2 µM (≈ 8.98 µg/mL)
A. baumannii KCTC 2508; KCTC 2508
  Minimal inhibitory concentration of antimicrobial peptide: 2 µM
A. baumannii KCTC 2508; KCTC 2508, 18 h
  Minimal inhibitory concentration: 2 µM (≈ 8.98 µg/mL)
A. baumannii #4
  Minimal inhibitory concentration: 2 µM (≈ 8.98 µg/mL)
[1]
  membrane-disrupting property (scanning electron microscopy): disruption of bacteria membrane
S. aureus ATCC 25923
  Minimal inhibitory concentration: 16 µM (≈ 71.9 µg/mL)
[2]; HaCaT keratinocyte cells
  viability at 24 h, 0.5 µM: 99%
  viability at 24 h, 1 µM: 99%
  viability at 24 h, 2 µM: 96%
  viability at 24 h, 4 µM: 98%
  viability at 24 h, 8 µM: 99%
  viability at 24 h, 16 µM: 83%
  viability at 24 h, 32 µM: 17%
[2]; Hs27 fibroblast cells
  viability at 24 h, 0.5 µM: 95%
  viability at 24 h, 1 µM: 90%
  viability at 24 h, 2 µM: 90%
  viability at 24 h, 4 µM: 89%
  viability at 24 h, 8 µM: 90%
  viability at 24 h, 16 µM: 82%
  viability at 24 h, 32 µM: 19%
P. aeruginosa ATCC 27853
  Minimal inhibitory concentration: 8 µM (≈ 35.9 µg/mL)
